Laboratory results: publication PMC6726858, “Discovery and characterization of a small‐molecule enteropeptidase inhibitor, SCO‐792” (Pharmacology Research & Perspectives, 2019)
Read-outs that look alike come from different tables or passages of the source. *: point of attachment. βNA = c1ccc2cc(N*)ccc2c1

Columns and labels:
[1] = target: T1, recombinant light chain of human enteropeptidase (Homo sapiens, UniProt P98073); experiment: Determination of K m value of enteropeptidase for substrates; format: biochemical; conditions: Michaelis–Menten fit of initial velocities
T1 construct: purchased ITSI‐Biosciences (Johnstown, PA)
Excerpt: Enteropeptidase is produced as a proenteropeptidase in enterocytes, the activation of which requires digestion to a light chain and a heavy chain. The light chain contains the catalytic active site, whereas the disulfide‐linked heavy chain provides the anchor to the brush border membrane. Thus, we used recombinant light chain of human enteropeptidase to discover its inhibitors. To identify small‐molecule enteropeptidase inhibitors, we designed two specific dual‐labeled substrates and developed enzyme assay systems. In the assay, the energy of the donor of an uncleaved substrate is transferred to the proximal acceptor at the opposite side of the substrate. When protease cleaves the substrate, the pair separates and the donor no longer transfers its emission to the acceptor, which leads to an increase in the fluorescence intensity observed from the donor.15 Enteropeptidase activity was measured with our designed substrates, Cy5‐labeled (Figure 1C) and 5FAM‐labeled substrates (Figure 1E), and commercially available substrate, H‐Gly‐Asp‐Asp‐Asp‐Asp‐Lys‐βNA (GDDDDK‐βNA), naphthylamine (Figure 1A). In our assay system, the fluorescence signal from the enzyme reaction increased in a time‐dependent manner. […]

[2] = target: T2, human recombinant enteropeptidase (Homo sapiens, UniProt P98073); experiment: Enteropeptidase enzyme assay (human recombinant enteropeptidase, FRET substrate); format: biochemical; conditions: 120‐minute incubation; read-out: IC50 (95% confidence intervals), human enteropeptidase activity
T2 construct: purchased ITSI‐Biosciences (Johnstown, PA)
Procedure: In the HTS, enzyme and substrate were dissolved in the enteropeptidase assay buffer [50 mmol/L Tricine, pH 8.0, 0.01% (w/v) Tween20, and 10 mmol/L CaCl2]. Twenty‐five nanoliters of compound solution dissolved in DMSO was added to a 1536‐well black plate, and then 2 μL of 90 mU/mL human recombinant enteropeptidase solution was added to the plate and incubated at room temperature for 60 minutes. Next, 2 μL of substrate solution [2.1 μmol/L QSY21‐Gly‐Asp‐Asp‐Asp‐Lys‐Ile‐Val‐Gly‐Gly‐Lys (Cy5)] was added to the plate and incubated at room temperature for 30 minutes. After incubation, 2 μL of 30 mmol/L H2SO4 solution was added to stop the reaction. The fluorescence was measured at an excitation wavelength of 620 nm and an emission wavelength of 685 nm by multilabel plate reader EnVision (PerkinElmer, Waltham, MA).
For kinetic analysis, compounds were dissolved in DMSO and then diluted in the enteropeptidase assay buffer. […] The fluorescence was measured every minute at an excitation wavelength of 485 nm and an emission wavelength of 520 nm using an EnVision multilabel plate reader. The progress curves were fitted to the following equation to determine the values for k obs, the apparent rate constant from initial rate v 0 to steady state rate v s:(1) F=vst+(v0-vs)(1-e^-kobst)/kobs+F0, where t is the time, F is the fluorescence, and F 0 is the fluorescence at time t = 0. […]

[3] = target: T2, human recombinant enteropeptidase; experiment: Kinetic analysis of enteropeptidase inhibition (progress curves, k obs); format: biochemical; conditions: for k inact/K I: 5FAM‐labeled substrate 0.7 μmol/L, corrected for [S]/Km
Procedure: For kinetic analysis, compounds were dissolved in DMSO and then diluted in the enteropeptidase assay buffer. Five microliters of compound solution was added to a 384‐well black plate followed by 5 μL of substrate solution [2.1 μmol/L 5FAM‐Abu‐Gly‐Asp‐Asp‐Asp‐Lys‐Ile‐Val‐Gly‐Gly‐Lys (CPQ2)‐Lys‐Lys‐NH2] and 5 μL of 24 mU/mL human recombinant enteropeptidase solution and mixed. The final concentration of substrate was 0.7 μmol/L, which is almost the same as the K m value. The fluorescence was measured every minute at an excitation wavelength of 485 nm and an emission wavelength of 520 nm using an EnVision multilabel plate reader. The progress curves were fitted to the following equation to determine the values for k obs, the apparent rate constant from initial rate v 0 to steady state rate v s:(1) F=vst+(v0-vs)(1-e^-kobst)/kobs+F0, where t is the time, F is the fluorescence, and F 0 is the fluorescence at time t = 0.
The k inact/K I,app value was determined as the slope of the [I] vs k obs plot, and the corrected k inact/K I value was also estimated according to the following equation:(2) kinact/KI,app=kinact/KI/(1+[S]/Km), where [I] is the concentration of inhibitor, [S] is the concentration of substrate, and K m is the Michaelis–Menten constant.

[4] = target: T2, human recombinant enteropeptidase; experiment: Dissociation assay (rapid dilution); format: biochemical
Procedure: For the dissociation assay, compounds were dissolved in DMSO and then diluted in the enteropeptidase assay buffer. Ten microliters of compound solution was added to a 96‐well plate, and then 10 μL of 100 mU/mL human recombinant enteropeptidase solution was added to the plate and incubated at room temperature for 120 minutes. The concentration of the compound was equal to 10‐fold of the IC50 value upon incubation for 120 minutes. After this incubation, 2 μL of an compound‐enzyme mixture was transferred to a 96‐well black plate, and then 200 μL of substrate solution [3 μmol/L 5FAM‐Abu‐Gly‐Asp‐Asp‐Asp‐Lys‐Ile‐Val‐Gly‐Gly‐Lys(CPQ2)‐Lys‐Lys‐NH2] was added to the well. By its rapid dilution, the concentration of the inhibitor dropped from 10‐fold above the IC50 to 10‐fold below it. The fluorescence was measured every […] at an excitation wavelength of 485 nm and an emission wavelength of 520 nm using an EnVision multilabel plate reader. The progress curves were fitted to the following equations to determine the values for k off and dissociation half‐life, t 1/2.(3) F=vst+((v0-vs)(1-e^-kofft))/koff+F0 (4) t1/2=ln(2)/koff

chymotrypsin = experiment: Serine protease selectivity: chymotrypsin; format: biochemical; conditions: at 10 μmol/L
DPP‐4 = DPP‐4 (Homo sapiens, UniProt P27487); experiment: Serine protease selectivity: DPP‐4; format: biochemical; conditions: at 10 μmol/L; read-out: inhibitory activity against DPP‐4
factor XIIa = target: T3, factor XIIa (Homo sapiens, UniProt P00748); experiment: Serine protease selectivity: factor XIIa; format: biochemical; conditions: at 10 μmol/L; read-out: inhibitory activity against factor XIIa
T3 sequence (P00748 373-615 limits assumed): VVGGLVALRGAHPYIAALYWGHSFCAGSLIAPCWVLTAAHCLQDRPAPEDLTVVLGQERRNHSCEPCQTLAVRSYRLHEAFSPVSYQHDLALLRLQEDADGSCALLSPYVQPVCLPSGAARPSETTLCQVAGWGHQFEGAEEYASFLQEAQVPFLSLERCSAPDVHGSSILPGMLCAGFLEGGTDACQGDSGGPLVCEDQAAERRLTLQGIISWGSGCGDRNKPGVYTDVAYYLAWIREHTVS

factor Xa = factor Xa (Homo sapiens, UniProt P00742); experiment: Serine protease selectivity: factor Xa; format: biochemical; conditions: at 10 μmol/L; read-out: inhibitory activity against factor Xa
thrombin = thrombin (Homo sapiens, UniProt P00734); experiment: Serine protease selectivity: thrombin; format: biochemical; conditions: at 10 μmol/L; read-out: inhibitory activity against thrombin
plasma kallikrein = plasma kallikrein (Homo sapiens, UniProt P03952); experiment: Serine protease selectivity: plasma kallikrein (Panlabs Enzymatic Assay Services, Eurofins); format: biochemical
plasmin = plasmin (Homo sapiens, UniProt P00747); experiment: Serine protease selectivity: plasmin (Panlabs Enzymatic Assay Services, Eurofins); format: biochemical
[5] = Pharmacokinetic study in rats; format: in vivo, Sprague‐Dawley rats; conditions: for AUC(0-t): read-out: AUC0–24 h
Procedure: Male Sprague‐Dawley rats were obtained from Charles River Laboratories Japan, Inc. (Yokohama, Japan). A pharmacokinetic study was conducted when the animals were 8 weeks old. For oral administration, SCO‐792 was suspended in a 0.5% (w/v) methylcellulose solution. For intravenous administration, SCO‐792 was dissolved in DMSO and added with saline to prepare a dosing formulation at a concentration of 0.2 mg/mL (DMSO:saline = 2:8 (v/v)). The oral dosing formulations were mixed well and given to fed‐male rats at single doses of 10 mg/5 ml/kg using polypropylene syringes with gavage needles. The intravenous dosing formulation was injected into the femoral vein of fed‐male rats at a dose of 0.2 mg/1 ml/kg using polypropylene syringes with needles under anesthesia with isoflurane. The blood was collected at the indicated time points, and the plasma concentrations of SCO‐792 were determined by high‐performance liquid chromatography/tandem mass spectrometry.

[6] = system: plasma branched‐chain amino acids (BCAA); experiment: Oral protein challenge in rats (plasma BCAA); format: in vivo, Sprague‐Dawley rats; conditions: 10, 30 mg/kg oral, ≤4 hour prior to whey protein load 2.5 g/kg
Procedure: Male Sprague‐Dawley rats were obtained from CLEA Japan Inc. (Tokyo, Japan). Eight‐week‐old rats were randomized into three groups on the basis of body weight and body weight change before the experiment (n = 4). SCO‐792 (10, 30 mg/kg in a 0.5% (w/v) methylcellulose solution) was then orally administered 1, 2, 4, and 6 hours before an oral whey protein load (2.5 g/kg; SAVAS whey protein 100, Meiji, Japan), and blood samples were collected at indicated time points for the measurement of plasma branched‐chain amino acids (BCAA).
Plasma BCAA concentration was measured using an enzymatic spectrophotometric assay as described by Beckett.14 Briefly, bacterial leucine dehydrogenase was used to catalyze the oxidation of BCAA, and the production of NADH was measured using a spectrophotometer (excitation 355 nm, emission 460 nm). L‐leucine was used to generate a standard curve to determine sample concentrations.

Chemical stability = format: physicochemical
[7] = 120 min preincubation, rapid dilution
[8] = male, Sprague-Dawley, rat, in vivo, intravenous, 0.2 mg/kg, mean ± SD (n = 3)
[9] = male, Sprague-Dawley, rat, in vivo, oral, 10 mg/kg, mean ± SD (n = 3)

T2 sequence (P98073 785-1019 limits assumed): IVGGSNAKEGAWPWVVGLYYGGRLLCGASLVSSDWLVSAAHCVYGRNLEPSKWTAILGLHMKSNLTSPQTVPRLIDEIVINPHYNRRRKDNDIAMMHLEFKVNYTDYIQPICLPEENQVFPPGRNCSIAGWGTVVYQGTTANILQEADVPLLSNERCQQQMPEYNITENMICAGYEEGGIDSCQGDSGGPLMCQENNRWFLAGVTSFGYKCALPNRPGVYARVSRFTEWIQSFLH
T1 sequence (P98073 785-1019 limits assumed): as above
Chain of plasma kallikrein (P03952 391-638 limits assumed, species assumed): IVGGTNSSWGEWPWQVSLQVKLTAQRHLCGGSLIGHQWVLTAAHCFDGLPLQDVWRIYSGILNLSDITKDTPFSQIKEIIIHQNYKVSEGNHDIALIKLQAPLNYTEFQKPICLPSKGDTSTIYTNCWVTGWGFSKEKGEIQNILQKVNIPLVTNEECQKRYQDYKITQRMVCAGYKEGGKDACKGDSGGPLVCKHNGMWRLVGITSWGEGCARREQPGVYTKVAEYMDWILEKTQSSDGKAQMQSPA
Chain of plasma kallikrein (P03952 20-390 partner limits assumed, species assumed): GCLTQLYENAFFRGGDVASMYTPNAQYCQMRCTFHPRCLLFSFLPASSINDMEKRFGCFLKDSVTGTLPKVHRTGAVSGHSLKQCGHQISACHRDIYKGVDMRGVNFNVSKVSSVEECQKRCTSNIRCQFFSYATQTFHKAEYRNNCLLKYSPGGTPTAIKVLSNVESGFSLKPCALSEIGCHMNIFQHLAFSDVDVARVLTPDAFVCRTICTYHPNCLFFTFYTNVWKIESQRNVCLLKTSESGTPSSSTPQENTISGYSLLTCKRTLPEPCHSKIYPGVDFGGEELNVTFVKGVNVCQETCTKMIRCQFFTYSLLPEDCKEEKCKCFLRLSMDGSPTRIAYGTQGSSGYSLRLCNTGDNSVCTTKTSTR
Chain of DPP‐4 (P27487 whole entry, species assumed): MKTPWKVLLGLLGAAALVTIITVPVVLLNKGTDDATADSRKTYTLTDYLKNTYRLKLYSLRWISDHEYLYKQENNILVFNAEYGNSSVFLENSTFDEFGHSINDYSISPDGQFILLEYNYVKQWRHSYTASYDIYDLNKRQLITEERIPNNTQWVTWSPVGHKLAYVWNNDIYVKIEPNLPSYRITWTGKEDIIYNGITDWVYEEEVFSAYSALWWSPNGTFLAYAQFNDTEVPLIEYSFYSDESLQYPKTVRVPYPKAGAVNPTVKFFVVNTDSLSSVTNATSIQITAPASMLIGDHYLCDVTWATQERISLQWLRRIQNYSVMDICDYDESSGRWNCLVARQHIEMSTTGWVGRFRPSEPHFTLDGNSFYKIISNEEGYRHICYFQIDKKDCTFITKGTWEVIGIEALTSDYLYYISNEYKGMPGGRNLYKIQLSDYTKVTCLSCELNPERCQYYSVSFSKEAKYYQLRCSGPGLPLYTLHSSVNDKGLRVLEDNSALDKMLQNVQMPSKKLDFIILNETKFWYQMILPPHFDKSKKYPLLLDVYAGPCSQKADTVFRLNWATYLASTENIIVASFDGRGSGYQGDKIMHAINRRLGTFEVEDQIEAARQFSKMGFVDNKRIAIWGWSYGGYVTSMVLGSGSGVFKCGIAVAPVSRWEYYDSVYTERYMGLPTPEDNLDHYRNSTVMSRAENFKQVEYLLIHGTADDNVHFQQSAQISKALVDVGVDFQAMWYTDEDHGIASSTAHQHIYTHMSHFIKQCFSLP
Chain of plasmin (P00747 581-810 limits assumed, species assumed): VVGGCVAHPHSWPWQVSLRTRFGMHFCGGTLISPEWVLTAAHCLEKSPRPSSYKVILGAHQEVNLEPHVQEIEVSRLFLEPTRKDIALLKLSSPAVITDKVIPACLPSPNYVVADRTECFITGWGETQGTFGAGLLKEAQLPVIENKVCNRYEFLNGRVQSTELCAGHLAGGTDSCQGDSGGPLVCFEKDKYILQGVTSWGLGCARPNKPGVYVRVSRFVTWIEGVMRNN
Chain of plasmin (P00747 97-580 partner limits assumed, species assumed): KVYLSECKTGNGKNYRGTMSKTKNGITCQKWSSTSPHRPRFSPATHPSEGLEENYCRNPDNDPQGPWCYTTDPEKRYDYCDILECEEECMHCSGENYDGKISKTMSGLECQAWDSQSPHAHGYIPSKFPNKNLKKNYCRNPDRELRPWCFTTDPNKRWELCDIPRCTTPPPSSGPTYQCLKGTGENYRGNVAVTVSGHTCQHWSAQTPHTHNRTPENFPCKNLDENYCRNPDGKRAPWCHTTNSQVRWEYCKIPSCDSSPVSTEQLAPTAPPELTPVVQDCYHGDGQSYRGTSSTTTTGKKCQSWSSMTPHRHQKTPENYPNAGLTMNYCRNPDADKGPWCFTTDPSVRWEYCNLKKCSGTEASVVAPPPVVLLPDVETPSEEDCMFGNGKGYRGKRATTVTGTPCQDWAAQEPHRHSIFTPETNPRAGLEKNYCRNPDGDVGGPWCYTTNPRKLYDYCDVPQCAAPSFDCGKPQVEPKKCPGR
Chain of factor Xa (P00742 235-488 limits assumed): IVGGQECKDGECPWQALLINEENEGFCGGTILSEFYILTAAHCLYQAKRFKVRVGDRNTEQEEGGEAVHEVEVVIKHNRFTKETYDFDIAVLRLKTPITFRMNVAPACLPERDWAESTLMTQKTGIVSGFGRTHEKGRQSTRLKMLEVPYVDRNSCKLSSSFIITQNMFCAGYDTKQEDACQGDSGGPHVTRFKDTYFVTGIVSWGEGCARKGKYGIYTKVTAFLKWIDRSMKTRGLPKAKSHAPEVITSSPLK
Chain of factor Xa (P00742 41-179 partner limits assumed): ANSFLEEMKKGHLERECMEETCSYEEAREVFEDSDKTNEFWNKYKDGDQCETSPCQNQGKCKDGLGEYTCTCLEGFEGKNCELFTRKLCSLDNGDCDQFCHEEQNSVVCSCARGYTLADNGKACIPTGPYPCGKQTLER

For “5FAM‐Abu‐Gly‐Asp‐Asp‐Asp‐Lys‐Ile‐Val‐Gly‐Gly‐Lys (CPQ2)‐Lys‐Lys‐NH2 [5FAM‐labeled substrate]”, the “K m value for enteropeptidase” value [1] was 0.7 µM.

For `N=C(N)Nc1ccc(C(=O)Oc2ccc3c(c2)OC[C@H]3CC(=O)N[C@@H](CC(=O)O)C(=O)O)cc1.O` [SCO‐792, N‐({(3S)‐6‐[(4‐carbamimidamidobenzoyl)oxy]‐2,3‐dihydro‐1‐benzofuran‐3‐yl}acetyl)‐L‐aspartic acid hydrate], the IC50 [2] was 5.4 nM, the “time dependence of enteropeptidase inhibition” value [3] was “time‐dependent” and the “k inact/K I” value [3] was 82 000 /mol/L s. For the same compound, the reversibility of inhibition [4] was “reversible”, the “dissociation t 1/2” value [4, 7] was 14 h and the koff [4, 7] was 1.31e-05 s⁻¹. For the same compound, the “inhibitory activity against chymotrypsin” value (chymotrypsin) was less than 50%, the inhibition at 10 µM (DPP‐4) was less than 50% and the inhibition at 10 µM (factor XIIa) was less than 50%. For the same compound, the inhibition at 10 µM (factor Xa) was less than 50%, the inhibition at 10 µM (thrombin) was less than 50% and the IC50 (plasma kallikrein) was 16 nM. It also gave an IC50 (plasmin) of 460 nM, a BA ([5]; from AUC0‐24 h oral 10 mg/kg vs intravenous 0.2 mg/kg) of 0.4% and an AUC(0-inf) [5, 8] of 304 ± 30 ng·h/mL. The half-life [5, 8] was 5.2 ± 1.8 h, the AUC(0-t) [5, 8] was 303 ± 23 ng·h/mL and the clearance ([5]; male, Sprague-Dawley, rat, in vivo, intravenous, 0.2 mg/kg, mean ± SD (n = 3), read-out: CLp (converted)) was 11.1 mL/min/kg. It also gave a Vd ([5]; male, Sprague-Dawley, rat, in vivo, intravenous, 0.2 mg/kg, mean ± SD (n = 3), read-out: Vss) of 1.29 ± 0.299 L/kg, a Cmax at 5 min ([5]; male, Sprague-Dawley, rat, in vivo, intravenous, 0.2 mg/kg, observed at 5 minutes, mean ± SD (n = 3), read-out: C max (C5 min)) of 564 ± 58 ng/mL and an AUC(0-inf) [5, 9] of 49.8 ± 5.4 ng·h/mL. It also gave a Cmax [5, 9] of 6.6 ± 1.36 ng/mL, a Tmax [5, 9] of 1.7 ± 0.6 h and a half-life [5, 9] of 4.4 ± 0.5 h. For the same compound, the AUC(0-t) [5, 9] was 54.1 ± 7.5 ng·h/mL and the “effect on plasma BCAA elevations induced by oral protein dosing” value [6] was “effectively and dose‐dependently inhibited”.

In the case of `Cc1cc(OC(=O)c2ccc(NC(=N)N)cc2)no1` [T‐0046812], the IC50 [2] is reported as 140 nM, the “time dependence of enteropeptidase inhibition” value [3] is reported as “time‐dependent” and the “k inact/K I” value [3] is reported as 5300 mol⁻¹ L⁻¹ s⁻¹. For the same compound, the chemical stability (Chemical stability; pH 1.2) was “unstable” and the chemical stability (Chemical stability; pH 6.8) was “unstable”.

In the case of H-GDDDDK-βNA [GDDDDK‐βNA], the “K m value for enteropeptidase” value [1] is reported as 230 µM.
